This passage reports viability results from PMC12040169 (PLOS Biology, 2025).

The series is described as follows: in vitro. The note with it: human, hela cells, % viability.

As a reminder, the viability is a read-out of living cells in per cent, often relative to untreated cells. Regarding `CC(C)[C@@H](CO)Nc1cncc(-c2cccc(CO)c2)n1` [CBK065427], the viability at 28.5 h, 10 µM was 95.2%.
On to `CC(=O)N(C)c1ncc(Br)cc1C(=O)NCC1COc2ccccc2O1` (centres unmarked) [CBK076558], for which the viability at 28.5 h, 10 µM came to 91.7%.
As to `C/C(=N\NC(=O)CCN1CCN(C)CC1)c1ccc(O)cc1` [CBK263142], the viability at 28.5 h, 10 µM amounted to 92.2%.
Still for that read-out and setting: as for `OCCNc1cncc(-c2ccc3c(c2)OCO3)n1` [CBK065979], the figure is 85.6%.
The same measure, in the same setting: next, `c1cnc(N2CCCC2)c(OC2CCCNC2)n1` (centres unmarked) [CBK115283]: 90.2%; `O=C(O)C1CCCCC1C(=O)N1CCc2ccccc2C1` (centres unmarked) [CBK286594]: 85%; `Cn1c(CN2CCN(C(=O)c3ccco3)CC2)nc2cc([N+](=O)[O-])ccc21` [CBK268473]: 108%.
Same read-out and setting: next, `N#CC1=C(N)Oc2cc(N)ccc2C1c1ccc(-c2ccccc2)cc1` (centres unmarked) [CBK261605]: 91.3%; `CCCCOc1ccc(C(=O)N(C)c2ccc(CCC)cc2)cc1` [CBK161619]: 95.9%.
For the molecule `Cc1cc2c(cc3c(=O)n(CC(=O)N4CCC(C)CC4)nc(C)n32)o1` [CBK283590], the viability at 28.5 h, 10 µM amounted to 90.1%.
Still for that read-out and setting: as for `Cc1ccnn1CCC(=O)NC1(c2ccccc2F)CCCC1` [CBK283691], the figure is 81.7%; as for `O=C(c1cscn1)N1CCCCC1c1nc2ccccc2[nH]1` (centres unmarked) [CBK283394], 91%; as for `O=[N+]([O-])c1ccc(S(=O)(=O)Nc2nnc(C3CCCCC3)s2)cc1` [CBK200049], 94.8%.
For the molecule `CCOc1ccc(-c2cc(C(=O)NCc3cc(OC)ccc3OC)n[nH]2)cc1` [CBK288116], the viability at 28.5 h, 10 µM is 85.7%.
As to `Cc1nn(Cc2ccc(Cl)cc2)c(C)c1C(N)C(=O)O` (centres unmarked) [CBK286661], the viability at 28.5 h, 10 µM stood at 89.7%.
Same read-out and setting: next, `Cc1cccn2c(=O)cc(CN3CCC(n4ccnc4)CC3)nc12` [CBK305519]: 92.3%.
Same read-out and setting: as for `O=C(O)c1ccc(C(=O)Nc2ccc3c(=O)n4c(nc3c2)/C(=C/c2ccccc2)CC4)cc1` [CBK013048], the figure is 82.3%; as for `O=c1[nH]c(SCc2c(Cl)cccc2Cl)nc2ccnn12` [CBK116145], 92.8%; as for `Cc1ccc(OCCCC(=O)N2CCCc3c(cnn3C)C2)c(C)c1` [CBK285288], 96.9%.
Still for that read-out and setting: as for `Cc1ccc2[nH]nc(C(=O)NC(C)c3ccccn3)c2c1` (centres unmarked) [CBK281887], the figure is 69.9%.
Consider `O=C(NCCOCc1ccc(Cl)cc1)c1cc(-n2cnnc2)ccc1Cl` [CBK267939], for which the viability at 28.5 h, 10 µM was 101%.
On the same count and under the same terms, next, `O=C(CCN1CCCCC1)NC1Cc2ccccc2C1` [CBK200364]: 98.3%; `O=[N+]([O-])c1ccc(S(=O)(=O)NCCSCc2ccco2)cc1` [CBK267503]: 94.1%.
Turning to `CCC(CO)Nc1cncc(-c2cccs2)n1` (centres unmarked) [CBK065534], the viability at 28.5 h, 10 µM was determined as 110%.
Turning to `COc1ccc(-n2c(SCCCN3C(=O)c4cccc5cccc(c45)C3=O)nnc2-c2ccncc2)cc1` [CBK269123], the viability at 28.5 h, 10 µM amounted to 94.2%.
Same read-out and setting: next, `C(=C\c1nccnc1OCCOc1ccccc1)/c1ccccc1` [CBK106885]: 91.6%.
Still for that read-out and setting: next, `Cc1ccc(NC(=S)N2CCN(C/C=C/c3ccccc3)CC2)cc1` [CBK264574]: 98.9%.
Same read-out and setting: next, `NC(=O)CSc1nnc(-c2cc3ccccc3o2)n1Cc1ccccc1` [CBK268964]: 90.1%; `CC(C)Cn1cncc1CNC(=O)Nc1ccc2[nH]nnc2c1` [CBK306549]: 91.9%.
As for `CN(C(=O)c1ccco1)c1nc2c(s1)CCc1c-2cnn1C` [CBK281928], the viability at 28.5 h, 10 µM worked out at 81.2%.
On the same count and under the same terms, as for `O=C(Nc1ccc(F)cc1)C1CC(=O)n2c(nc3ccccc32)N1` (centres unmarked) [CBK287282], the figure is 101%; as for `CCN1CCC[C@@H]1CNc1cc(NS(=O)(=O)c2cccs2)cc2ccoc12` [CBK067904C], 83.3%.
Still for that read-out and setting: as for `CC1(C)CC(NS(=O)(=O)c2ccc(Br)cc2)CC(C)(C)N1` [CBK266805], the figure is 97.7%; as for `COc1cccc(C(=O)NC[C@H]2CC[C@H](c3cc(C(N)=O)c4ccccc4n3)CC2)c1OC` [CBK285919], 88.6%; as for `CCn1c(SCC(=O)Nc2ccc(C#N)cc2)nnc1-c1ccncc1` [CBK270102], 96.4%.
Same read-out and setting: as for `CSCCCNC(=O)c1cnn2c(C)c(Cc3ccccc3C)c(C)nc12` [CBK162028], the figure is 96.7%.
Turning to `Cc1ccc(Oc2ccc(C(F)(F)F)cc2[N+](=O)[O-])c(Br)c1` [CBK002817], the viability at 28.5 h, 10 µM was determined as 93.1%.
Same read-out and setting: as for `CC(=O)COc1cc(OCC(C)=O)c2c3c(c(=O)oc2c1)CCC3` [CBK307219], the figure is 85.1%; as for `Cc1cccc2c(=O)nc(-c3ccccc3Cl)oc12` [CBK152422], 106%; as for `CN(C)Cc1cc(-c2ccccc2F)nn1CCNC(=O)C1CC1` [CBK282006], 90.5%.
In the case of `Fc1ccc(-c2[nH]c3ncccc3c2CN2CCOCC2)cc1` [CBK285310], the viability at 28.5 h, 10 µM worked out at 111%.
On the same count and under the same terms, next, `COc1nccnc1N1CCN(CCSC)CC1` [CBK084227]: 90.2%.
Same read-out and setting: next, `COc1ccc2c(c1)C(C)CC(C)(C)N2C(=O)CSc1nnc(-c2ccco2)n1C` (centres unmarked) [CBK059169]: 102%; `COc1cc([N+](=O)[O-])ccc1NC(=O)CCN1C(=O)C2C3CCC(C3)C2C1=O` (centres unmarked) [CBK265141]: 99.3%.
On the same count and under the same terms, next, `CC(C)CC(C(=O)Nc1ccc(Br)cc1)N1C(=O)c2ccccc2C1=O` (centres unmarked) [CBK264253]: 94.1%; `Cn1ccnc1C1(O)CCN(C(=O)c2cc(F)cc(F)c2)CC1` [CBK283544]: 102%.
Consider `O=C(C[C@@H]1CCNC[C@@H]1Cc1cc(-c2ccc(F)cc2)on1)Nc1ccccc1` [CBK288801], for which the viability at 28.5 h, 10 µM is 96.4%.
On the same count and under the same terms, next, `Cc1ccc(S(=O)(=O)Nc2c(C(=O)N3CCN(C)CC3)sc3ncccc23)cc1[N+](=O)[O-]` [CBK050025]: 91.2%; `C[C@H](NC(=O)OC1CC[C@@]2(c3ccccc3)CCN(C)[C@H]2C1)c1cccc2ccccc12` (some centres unmarked) [CBK003664]: 111%.
For `O=C(O)c1ccc(Cl)c(S(=O)(=O)N2CCCC2C(=O)O)c1` (centres unmarked) [CBK265733], the viability at 28.5 h, 10 µM is 103%.
On the same count and under the same terms, as for `Cc1cc(NC(=O)c2nn3c(C(F)(F)F)cc(-c4ccccc4)nc3c2Cl)nn1CC(=O)N1CCOCC1` [CBK268209], the figure is 105%.
Turning to `O=C(NC(=S)N1CCN(c2ccc([N+](=O)[O-])c(N3CCOCC3)c2)CC1)c1cc2ccccc2o1` [CBK268335], the viability at 28.5 h, 10 µM was determined as 109%.
Still for that read-out and setting: next, `Cc1ccc2nc(Cl)c(/C=N/NC(=O)CN3CCOCC3)cc2c1` [CBK262731]: 91.2%; `O=C(O)CCSc1nccc(C(F)(F)F)n1` [CBK107864]: 87.5%.
In the case of `O=C(O)c1ccccc1Nc1c2ccccc2nc2ccccc12` [CBK263921], the viability at 28.5 h, 10 µM was determined as 96%.
Still for that read-out and setting: next, `Cc1ccc2c(c1)C(=O)NCC1(CCN(C(=O)C3CC3)CC1)O2` [CBK284835]: 108%; `O=C(Nc1cccc(C(=O)O)c1)/C(=C\c1ccccc1)NC(=O)c1ccccc1Cl` [CBK263710]: 90.4%; `COc1ccc(CC(=O)c2ccc(O)cc2O)cc1` [CBK012203]: 88.2%.
The same measure, in the same setting: next, `CCCN(CCC)C(=O)c1ccc(-n2nc(C(=O)OCC)c(Br)c2C)cc1` [CBK114363]: 109%.
Same read-out and setting: next, `O=C(OCCC1SC(NC2CC3C=CC2C3)=NC1=O)c1c(F)cccc1F` (centres unmarked) [CBK200057T]: 89.7%.
For `C(=N\n1cnnc1)/c1ccccc1OCc1cccc2ccccc12` [CBK263864], the viability at 28.5 h, 10 µM worked out at 94.6%.
Still for that read-out and setting: as for `CCOc1ccc(Nc2cc(Cl)nc(N)n2)cc1` [CBK288069], the figure is 98.7%; as for `Fc1ccc(-c2cn(-c3cncnc3)nn2)c(F)c1` [CBK112989], 96.4%.
On the same count and under the same terms, next, `O=C1CCCN1CC#CCN1CCN(Cc2ccccc2)CC1` [CBK023770C]: 96.2%.
In the case of `COc1cc(CNCCO)ccc1OCc1cccc(Cl)c1` [CBK270013C], the viability at 28.5 h, 10 µM amounted to 94.5%.
Same read-out and setting: as for `O=S(=O)(Nc1cccc(-c2nnn[nH]2)c1)c1ccc(Br)s1` [CBK160377], the figure is 101%.
Still for that read-out and setting: next, `O=C(Cn1nc(-c2cc3c(s2)CCC3)oc1=O)NC1CC1` [CBK283800]: 101%; `Nc1ncc(-c2ccc(C(=O)N3CCOCC3)cc2)cc1C(=O)NCc1c(F)cccc1F` [CBK158569]: 80.6%; `COc1ccc(Nc2cc(Cl)ccc2C(=O)Nc2ccncc2)cn1` [CBK107434]: 96.3%.
Same read-out and setting: next, `c1ccc(N2CCN(CC3CN(c4ccccc4)c4ccccc4O3)CC2)cc1` (centres unmarked) [CBK066876]: 86%.
Consider `COc1ccc(CCNc2c(Cc3ccccc3)c(C)c(C#N)c3nc4ccccc4n23)cc1OC` [CBK263135], for which the viability at 28.5 h, 10 µM was 93%.
The same measure, in the same setting: as for `O=S(=O)(NCC(c1ccccc1)n1cc(-c2ccccc2)nn1)c1ccccc1` (centres unmarked) [CBK268244], the figure is 85.2%; as for `O=C1NCCNC(=O)C2(C/C=C/COc3ccccc31)CCN(C(=O)CCC1CCCC1)CC2` [CBK291995], 118%.
For `c1ccc2c(c1)NC(c1ccncc1)n1nnnc1-2` (centres unmarked) [CBK288171], the viability at 28.5 h, 10 µM was 82.5%.
Still for that read-out and setting: next, `CC(C)(C)c1cc(CN2CCCCC2)c(C(=O)O)o1` [CBK266556C]: 97.8%.
On the same count and under the same terms, as for `Cc1cc(NC(=O)C2CCN(C(=O)c3c(F)cccc3F)CC2)no1` [CBK304359], the figure is 95.9%; as for `Cc1cc(Cl)c(S(=O)(=O)NCc2ccccc2)cc1OCC(N)=O` [CBK266588], 104%.
Turning to `O=C(c1ccoc1)N1CCC2(CC1)OCc1ccccc1O2` [CBK061234], under “bulk resorufin, single well”, the viability at 28.5 h, 10 µM came to 94.7%.
As for `COC1C(O)C(CO)OC1n1cnc2c(=O)[nH]c(N)nc21` (centres unmarked) [CBK201324], the viability at 28.5 h, 10 µM stood at 96.2%.
On the same count and under the same terms, as for `CCC(=O)Nc1nc2c(OC)ccc(C)c2s1` [CBK287616], the figure is 110%.
